Results from patent publication US11932897B2, “Biosynthesis of curcuminoids in mammalian cells” (University of Kentucky Research Foundation, priority 2018, dated 2024).

Tests used:
[1] = test system: reactive oxygen species (ROS) within cells; assay: CellROX Deep Red assay of cellular oxidative stress after H2O2 treatment; format: cell-based; details: for effect on CellROX fluorescence / oxidation (in words): 1 mM H2O2 for 30 min, then CellROX Deep Red, transfected cells in substrate-supplemented media, or supplemented media alone
Description: Cells were exposed to 1 mM H2O2 for 30 min before incubation with CellROX Deep Red. Blank: untransfected cells. F: ferulic acid-supplemented media. P: p-courmaric acid-supplemented media. pGL3: luciferase-encoding plasmid.
Additionally, the antioxidant potential of heterologously produced curcuminoids was investigated using CellROX Deep Red (Invitrogen, Carlsbad, Calif.), a fluorogenic probe for cellular oxidative stress. The cell-permeable CellROX dye is non-fluorescent in its reduced state but becomes highly fluorescent upon oxidation by reactive oxygen species (ROS) within cells. Cells were treated with 1 mM H2O2 to induce oxidative stress and subsequently incubated with CellROX before quantifying the resulting fluorescence (FIG. 11).

[2] = test system: radiation-induced oral mucositis; assay: Syrian hamster model of radiation-induced oral mucositis; details: sustained presence of curcumin from in vivo biosynthesis, versus irradiated hamsters without treatment or with positive control; 60 Gy
Text: Briefly, the hamster is anesthetized, the left cheek pouch is clamped between acrylic sheets to hold it in place, and each cheek pouch is exposed to 60 Gy total irradiation in a linear accelerator (LINAC). The use of the LINAC system provides gamma radiation exposure, is clinically relevant, and provides tight control of the radiation dose, reducing animal-to-animal exposure differences. For up to three weeks after irradiation, the hamsters is weighed daily and cheeks extracted to evaluate injury based on a well-established, validated scale (Table 2).
Equal numbers of male and female hamsters are randomly divided into groups (n=8). Negative controls comprise non-irradiated, non-treated; nonirradiated, treated; and irradiated, nontreated groups. […] The treatment groups are determined based on the curcuminoid production levels, bioavailability, and duration of production achievable in the in vivo systems described above. A preferred treatment is animals stably producing curcuminoids following AAV8-mediated transfection of liver and providing therapeutically relevant curcuminoid concentrations in circulation. The primary alternative is local AAV-mediated transfection of tissues in the cheek pouch. Another alternative approach is HEK293-ddCCM or HEK-CCM cells encapsulated in lysine/alginate spheres and implanted s.c. or i.p. in tissue cages.

[3] = in vivo; cited from earlier work
[4] = cited from earlier work

| SMILES | effect on CellROX fluorescence / oxidation (in words) [1] | severity and duration of OM [2] | reduction in CellROX fluorescence ([1]; cells producing CCM from ferulic acid (4CL1/DCS/CURS1), 1 mM H2O2 for 30 min before CellROX Deep Red) [%] | oral bioavailability [3] [%] | half-life in plasma [4] |
| --- | --- | --- | --- | --- | --- |
| COc1cc(/C=C/C(=O)O)ccc1O [ferulic acid] | Neither the presence of p-coumaric acid nor ferulic acid, nor transfection with pGL3 (encoding luciferase), had any effect |  |  |  |  |
| O=C(O)/C=C/c1ccc(O)cc1 [p-coumaric acid] | Neither the presence of p-coumaric acid nor ferulic acid, nor transfection with pGL3 (encoding luciferase), had any effect |  |  |  |  |
| COc1cc(/C=C/C(=O)CC(=O)/C=C/c2ccc(O)c(OC)c2)ccc1O [CCM, curcumin] |  | significantly reduces severity and duration of OM | 37 | ~1 | relatively short |
